Test: Moisture sorption/desorption (hygroscopicity)
Type: physicochemical
Method: Moisture sorption/desorption data were collected on a VTI SGA-100 Vapor Sorption Analyzer. Sorption and desorption data were collected over a range of 5% to 95% relative humidity (“RH”) at 10% RH intervals under nitrogen purge. Samples were not dried prior to analysis. Equilibrium criteria used for analysis were less than 0.0100% weight change in 5 minutes, with a maximum equilibration time of 3 hours if the weight criterion was not met. Data were not corrected for the initial moisture content of the samples. NaCl and PVP were used as calibration standards. This example illustrates the differential scanning calorimetry (DSC) and hygroscopicity analysis of Form I prepared according to Example 6.

Question: Which results are given for O=S(=O)(Nc1cc(Cl)c(Oc2cnc3ccccc3c2)c(Cl)c1)c1ccc(Cl)cc1Cl.O=S(=O)(O)c1ccccc1 [Form I, 2,4-Dichloro-N-[3,5-dichloro-4-(quinolin-3-yloxy)-phenyl]-benzenesulfonamide benzenesulfonate salt]?
Answer: weight loss (moisture desorption, from 95% to 25% relative humidity): 0.6%; weight gain (moisture sorption, from 25% to 95% relative humidity): 0.6%

Source: patent US8003665B2, “Salts and polymorphs of a potent antidiabetic compound” (Amgen Inc., priority 2003, dated 2011)
